What was measured:
Experiment in all cases: relative viability (nuclei count vs DMSO), 5 days (fraction); higher = more cells survive
4EGI-1 + Pictilisib = compound: O=C(O)C(Cc1ccccc1[N+](=O)[O-])=NNc1nc(-c2ccc(Cl)c(Cl)c2)cs1 (mixture of isomers) [4EGI-1] + CS(=O)(=O)N1CCN(Cc2cc3nc(-c4cccc5[nH]ncc45)nc(N4CCOCC4)c3s2)CC1 [Pictilisib] (partner 1 µM)
Method in brief: (§1)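 The day after seeding in 1536-well plates, lung cancer cell lines were treated by pin tool with a single drug, or with a fixed anchor-drug dose together with five library-drug doses (not always all listed) in √10 steps. After 5 days, a combined fix-and-stain solution (final 0.05% Triton X-100, 1% formaldehyde, 1 ug/ml Hoechst) was added. Nuclei counted on 4× images gave relative viability as treated counts over vehicle counts, reported as the median of duplicate plates.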

XMD8-85 + Crizotinib = compound: CN1CCN(CC1)C2=CC(=C(C=C2)NC3=NC=C4C(=N3)N(C5=CC=CC=C5C(=O)N4C)C)OC [XMD8-85] + C[C@@H](Oc1cc(-c2cnn(C3CCNCC3)c2)cnc1N)c1c(Cl)ccc(F)c1Cl [Crizotinib] (partner 1 µM)
Method in brief: as §1

XMD8-85 + Foretinib = compound: CN1CCN(CC1)C2=CC(=C(C=C2)NC3=NC=C4C(=N3)N(C5=CC=CC=C5C(=O)N4C)C)OC [XMD8-85] + COc1cc2c(Oc3ccc(NC(=O)C4(C(=O)Nc5ccc(F)cc5)CC4)cc3F)ccnc2cc1OCCCN1CCOCC1 [Foretinib] (partner 0.25 µM)
Method in brief: as §1

XMD8-85 + Linsitinib = compound: CN1CCN(CC1)C2=CC(=C(C=C2)NC3=NC=C4C(=N3)N(C5=CC=CC=C5C(=O)N4C)C)OC [XMD8-85] + C[C@]1(O)C[C@@H](c2nc(-c3ccc4ccc(-c5ccccc5)nc4c3)c3c(N)nccn32)C1 [Linsitinib] (partner 1 µM)
Method in brief: as §1

| Cell Line | relative viability (4EGI-1 + Pictilisib; first compound 0.5 µM) | relative viability (4EGI-1 + Pictilisib; first compound 1.581 µM) | relative viability (4EGI-1 + Pictilisib; first compound 5 µM) | relative viability (4EGI-1 + Pictilisib; first compound 15.81 µM) | relative viability (4EGI-1 + Pictilisib; first compound 50 µM) | relative viability (XMD8-85 + Crizotinib; first compound 0.08 µM) | relative viability (XMD8-85 + Crizotinib; first compound 0.253 µM) | relative viability (XMD8-85 + Crizotinib; first compound 0.8 µM) | relative viability (XMD8-85 + Crizotinib; first compound 2.53 µM) | relative viability (XMD8-85 + Crizotinib; first compound 8 µM) | relative viability (XMD8-85 + Foretinib; first compound 0.08 µM) | relative viability (XMD8-85 + Foretinib; first compound 0.253 µM) | relative viability (XMD8-85 + Foretinib; first compound 0.8 µM) | relative viability (XMD8-85 + Foretinib; first compound 2.53 µM) | relative viability (XMD8-85 + Foretinib; first compound 8 µM) | relative viability (XMD8-85 + Linsitinib; first compound 0.08 µM) | relative viability (XMD8-85 + Linsitinib; first compound 0.253 µM) | relative viability (XMD8-85 + Linsitinib; first compound 0.8 µM) | relative viability (XMD8-85 + Linsitinib; first compound 2.53 µM) | relative viability (XMD8-85 + Linsitinib; first compound 8 µM) |
| --- | --- | --- | --- | --- | --- | --- | --- | --- | --- | --- | --- | --- | --- | --- | --- | --- | --- | --- | --- | --- |
| NCI-H1355 | 0.372 | 0.396 | 0.493 | 0.362 | 0.277 | 1.16 | 1.07 | 1.06 | 0.989 | 0.77 | 1.02 | 1.01 | 0.977 | 0.878 | 0.811 | 0.807 | 0.913 | 0.828 | 0.715 | 0.829 |
| NCI-H1437 | 0.532 | 0.478 | 0.533 | 0.256 | 0.126 | 0.76 | 0.923 | 1.14 | 0.856 | 0.491 | 1.3 | 1.28 | 1.32 | 1.08 | 0.867 | 0.902 | 0.944 | 1.09 | 0.92 | 0.413 |
| NCI-H1563 | 0.637 | 0.662 | 0.622 | 0.662 | 0.521 | 0.931 | 0.812 | 0.72 | 0.841 | 0.757 | 1.05 | 0.935 | 0.836 | 0.892 | 0.767 | 1.2 | 1.26 | 1.13 | 1.27 | 0.844 |
| NCI-H1651 | 0.627 | 0.632 | 0.576 | 0.508 | 0.21 | 0.924 | 0.855 | 0.822 | 0.836 | 0.772 | 0.857 | 0.769 | 0.712 | 0.799 | 0.631 | 0.957 | 0.909 | 0.945 | 1.08 | 0.659 |
| NCI-H1666 | 0.38 | 0.343 | 0.524 | 0.376 | 0.266 | 0.789 | 0.917 | 1.35 | 1.31 | 0.705 | 0.991 | 0.988 | 0.963 | 0.893 | 0.886 | 1.04 | 0.79 | 0.859 | 0.769 | 0.696 |
| NCI-H1703 | 0.266 | 0.253 | 0.238 | 0.222 | 0.255 | – | 0.586 | 0.649 | 0.47 | 0.315 | 0.353 | 0.363 | 0.33 | 0.374 | 0.35 | 0.496 | 1.1 | – | 0.773 | 0.641 |
| NCI-H1734 | 0.52 | 0.359 | 0.463 | 0.397 | 0.316 | 0.614 | 0.646 | 0.724 | 0.577 | 0.368 | 0.858 | 0.853 | 0.896 | 0.842 | 0.629 | 1.01 | 0.766 | 0.863 | 0.816 | 0.607 |
| NCI-H1755 | 0.604 | 0.477 | 0.459 | 0.398 | 0.235 | 0.901 | 0.978 | 0.892 | 0.939 | 0.748 | 0.873 | 0.921 | 0.88 | 0.97 | 0.783 | 1.06 | 1.01 | 1 | 1.09 | 0.907 |
| NCI-H1915 | 0.943 | 0.558 | 1.03 | 0.933 | 0.66 | 1.06 | 0.909 | 0.943 | 0.998 | 0.882 | 1.16 | 1.1 | 1.16 | 1.02 | 0.83 | 1.15 | 1.15 | 1.08 | 1.16 | 0.999 |
| NCI-H1944 | 0.357 | – | 0.331 | 0.33 | 0.285 | 1.02 | 0.999 | 1.3 | 1.35 | 0.979 | – | 1.04 | 0.898 | 0.836 | 0.571 | 1.1 | 1.26 | 1.25 | 1.44 | 1.04 |
| NCI-H1975 | 0.309 | 0.324 | 0.316 | 0.322 | 0.294 | 1.08 | 0.827 | 1.07 | 0.937 | 0.352 | 1.05 | 0.925 | 0.917 | 0.779 | 0.561 | 1.01 | 0.908 | 0.981 | 1.03 | 0.498 |
| NCI-H1993 | 0.919 | 0.761 | 0.781 | 0.736 | 0.862 | 0.783 | 0.77 | 0.869 | 0.944 | 0.64 | 0.742 | 0.894 | 0.806 | 0.706 | 0.61 | 0.814 | 0.669 | 0.812 | 0.718 | 0.704 |
| NCI-H2009 | 1.08 | 0.772 | 1.06 | 0.843 | 0.169 | 1.03 | 0.981 | 1.1 | 1.06 | 0.395 | 1.24 | 1.25 | 1.23 | 1.08 | 0.516 | 1.17 | 1.12 | 1.21 | 1.23 | 0.636 |

— the supplement of paper PMC10307832
